The values below come from patent US6861427B2, “Azabicyclylmethyl derivatives of 2,3-dihydro-1,4-dioxino[2,3-f]quinoline as 5-HT1A antagonists” (Wyeth, priority 2001, dated 2005).

The target of data set [1] is T1, cloned human 5-HT1A receptors (Homo sapiens, UniProt P08908).
T1 construct: expressed in transfected cells
T1 sequence (P08908 1-422): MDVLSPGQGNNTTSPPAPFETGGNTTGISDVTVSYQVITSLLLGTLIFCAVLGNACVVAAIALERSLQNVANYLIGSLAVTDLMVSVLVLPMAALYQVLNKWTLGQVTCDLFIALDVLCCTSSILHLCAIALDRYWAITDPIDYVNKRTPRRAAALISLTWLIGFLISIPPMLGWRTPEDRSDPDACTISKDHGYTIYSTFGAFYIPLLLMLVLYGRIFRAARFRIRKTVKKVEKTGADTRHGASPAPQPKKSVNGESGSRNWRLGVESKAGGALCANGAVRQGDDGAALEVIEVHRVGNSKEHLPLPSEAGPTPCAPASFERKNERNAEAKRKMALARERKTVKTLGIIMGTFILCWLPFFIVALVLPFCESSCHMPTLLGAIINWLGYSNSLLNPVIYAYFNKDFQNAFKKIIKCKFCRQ
The data set is described as follows: 35S-GTPγS binding assay, antagonist activity versus 8-OH-DPAT. In kind it is biochemical. The following applies: reversal of 8-OH-DPAT-stimulated 35S-GTPγS binding; for IC50: membranes with cloned human 5-HT1A receptors, read-out: 5-HT1A Function IC50. Here is the method: Antagonist activity at 5-HT1A receptors was established by using a ^35S-GTPγS binding assay similar to that used by Lazareno and Birdsall (Br. J. Pharmacol. 109: 1120, 1993), in which the test compound's ability to affect the binding of ^35S-GTPγS to membranes containing cloned human 5-HT1A receptors was determined. Agonists produce an increase in binding whereas antagonists produce no increase but rather reverse the effects of the standard agonist 8-OH-DPAT. The test compound's maximum inhibitory effect is represented as the Imax, while its potency is defined by the IC50.

Another data set deals with T2, human 5-HT1A receptors (Homo sapiens, UniProt P08908).
T2 construct: expressed in transfected cells; host or cells: CHO cells
T2 sequence (P08908 1-422): T1 sequence (P08908 1-422)
Kind of data set: [3H] 8-OH-DPAT displacement from the 5-HT1A serotonin receptor (CHO cells). In kind it is binding. The following applies: displacement of [3H] 8-OH-DPAT, CHO cells stably transfected with human 5-HT1A receptors; read-out: 5-HT1A Receptor Affinity KI. An excerpt:
High affinity for the serotonin 5-HT1A receptor was established by testing the claimed compound's ability to displace [^3H] 8-OH-DPAT (dipropylaminotetralin) from the 5-HT1A serotonin receptor following a modification of the procedure of Hall et al., J. Neurochem. 44, 1685 (1985) which utilizes CHO cells stably transfected with human 5-HT1A receptors.
In general terms: Loss of bound radioactivity is the signal in a displacement assay; it reports binding, not function.

Each structure is given as a SMILES string. Structures can show the parent of a compound that is named as a salt.

Usually melting point stands for the temperature of the solid-liquid transition. In turn, `Cc1ccc2c3c(ccc2n1)OCC(CN1C2CCC1CC(O)(c1ccc4ccccc4c1)C2)O3` (stereo not shown) (as salt: fumarate) (hydrate or solvate) [Example 3, 8-{[8-Methyl-2,3-dihydro[1,4]dioxino[2,3-f]quinolin-2-yl}methyl]-3-(2-naphthyl)-8-azabicyclo[3.2.1]octan-3-ol] returned a melting point of 218 to 218.5 °C.

Broadly, the IC50 is the concentration that inhibits the measured activity by half. For orientation: Ki means a dissociation constant, usually derived from enzyme kinetics or from competition with a known ligand. Turning to `Cc1ccc2c3c(ccc2n1)OCC(CN1C2CCC1CC(O)(c1ccc4ccccc4c1)C2)O3` (stereo not shown) [Example 3, 8-{[8-Methyl-2,3-dihydro[1,4]dioxino[2,3-f]quinolin-2-yl}methyl]-3-(2-naphthyl)-8-azabicyclo[3.2.1]octan-3-ol], in data set [1], the “5-HT1A Function Imax (maximum inhibitory effect)” value was “(100)” and the IC50 was determined as 55.5 nM. Further, on human 5-HT1A receptors, the Ki was determined as 3.45 nM.

On to `Cc1ccc2c3c(ccc2n1)OCC(CN1C2CCC1CC(O)(c1ccccc1)C2)O3` (stereo not shown) [Example 1, 8-{[8-Methyl-2,3-dihydro[1,4]dioxino[2,3-f]quinolin-2-yl]methyl}-3-phenyl-8-azabicyclo[3.2.1]octan-3-ol], for which the melting point was in the range of 162 to 165 °C. In data set [1], the “5-HT1A Function Imax (maximum inhibitory effect)” value is given as “(98.0)” and the IC50 worked out at 6.85 nM. The Ki on human 5-HT1A receptors came out at 2.59 nM.

`Cc1ccc2c3c(ccc2n1)OCC(CN1C2CCC1CC(O)(c1cccc(C(F)(F)F)c1)C2)O3` (stereo not shown) [Example 2, 8-{[8-Methyl-2,3-dihydro[1,4]dioxino[2,3-f]quinolin-2-yl]methyl}-3-[3-(trifluoromethyl)phenyl]-8-azabicyclo[3.2.1]octan-3-ol]: the Ki at human 5-HT1A receptors worked out at 6.81 nM.

The compound `Cc1ccc2c3c(ccc2n1)OCC(CN1C2CCC1CC(O)(c1cccc(C(F)(F)F)c1)C2)O3` (stereo not shown) (as salt: fumarate) (hydrate or solvate) [Example 2, 8-{[8-Methyl-2,3-dihydro[1,4]dioxino[2,3-f]quinolin-2-yl]methyl}-3-[3-(trifluoromethyl)phenyl]-8-azabicyclo[3.2.1]octan-3-ol] came in with a melting point of 146 to 150 °C.
